Active and inactive are the calls of the source. No cut-off for these calls is given here.
Assays:
RAW264.7 [1] = assay: Antiinflammatory activity in mouse RAW264.7 cells assessed as inhibition of LPS-stimulated NO production at 0.1 to 100 uM after 24 hrs by spectrophotometry; type: functional, cell-based
RAW264.7 [2] = assay: Antiinflammatory activity in mouse RAW264.7 cells assessed as inhibition of LPS-stimulated NO production at 100 uM after 24 hrs by spectrophotometry; type: functional
RAW264.7 [3] = assay: Cytotoxicity against mouse RAW264.7 cells by Alamar blue assay; type: cell-based

CCCCCCCCCC(=O)O[C@@H]1[C@H](O[C@@H](C[C@H](OC(C)=O)/C(C)=C/CO[C@@H]([C@H](O)[C@H](O)CO)[C@H](O)CO)[C@](C)(O)CCC=C(C)C)O[C@H](CO)[C@@H](O)[C@@H]1O [COSMOSPORASIDE D]
inhibition (RAW264.7 [1]): Dose-dependent effect | IC50 (RAW264.7 [1]; RAW264.7, 24 h): 66 µM | Imax (RAW264.7 [2]): 71.7%

CC(C)=CCC/C(C)=C/CC/C(C)=C/CO[C@@H]([C@H](O)[C@H](O)CO)[C@H](O)CO [COSMOSPORASIDE A]
Imax (RAW264.7 [2]): 54.52% | Activity (RAW264.7 [3]): Toxic

CC(=O)OC(CC(=O)C(C)CCC=C(C)C)/C(C)=C/CO[C@@H]([C@H](O)[C@H](O)CO)[C@H](O)CO (stereo partly drawn)
inhibition (RAW264.7 [2]): Active

CC(=O)O[C@@H](C[C@H](O[C@@H]1O[C@H](CO)[C@@H](O)[C@H](O)[C@@H]1O)[C@](C)(O)CCC=C(C)C)/C(C)=C/CO[C@@H]([C@H](O)[C@H](O)CO)[C@H](O)COCC=C(C)C
inhibition (RAW264.7 [2]): inactive

CCCCC/C=C\CCC(=O)O[C@@H]1[C@H](O[C@@H](C[C@H](OC(C)=O)/C(C)=C/CO[C@@H]([C@H](O)[C@H](O)CO)[C@H](O)CO)[C@](C)(O)CCC=C(C)C)O[C@H](CO)[C@@H](O)[C@@H]1O
inhibition (RAW264.7 [2]): Active

Reference: ChEMBL document CHEMBL1811900, “Sesquiterpene glycosides from Cosmospora joca” (J Nat Prod, 2011)
